According to publication PMC11802874, “The hypolipidemic effect of MI-883, the combined CAR agonist/ PXR antagonist, in diet-induced hypercholesterolemia model” (Nature Communications, 2025):
Values joined by “and” are separate entries in the source; they are usually repeats but may differ in a detail not shown here. Equal values may be shown once.

Key:
[1] = system: PXR-responsive CYP3A4(pER6)-luc construct; test: CYP3A4(pER6)-luc luciferase reporter assay in HepG2 cells
[2] = system: LS174T cells (endogenous PXR); test: CYP3A4 mRNA RT-qPCR in LS174T cells
Description: LS174T human colon adenocarcinoma cells (RRID:CVCL_1384) were used in induction experiments with the subsequent CYP3A4 mRNA RT-qPCR analysis as they express functional endogenous PXR.

HepaRG cells = test: RT-qPCR mRNA expression in differentiated HepaRG cells
Description: (§2) HepaRG cells from Biopredic (Rennes, France) were cultivated and differentiated on the 12-well plates. […] Several batches of HepaRG KO CAR (CAR Knockout HepaRG™ Cells, MTOX1012-1VL, RRID:CVCL_B6AA) and PXR Knockout HepaRG™ Cells, MTOX1011-1VL, RRID:CVCL_B6AS) cells have been obtained from Sigma-Aldrich/Merck (Darmstadt, Germany) and cultivated according to the provider’s protocols. […] Experiments with HepaRG KO PXR and HepaRG KO CAR cells have been performed in duplicates at least in two independent experiments.
(§3) RT-qPCR was used to examine gene expression in 2D and 3D PHH, HepaRG cells, or in mouse liver or intestine (ileum) samples as we have described before[60]–[62].
(§4) All qRT-qPCR experiments including Trizol reagent (Life Technologies) total RNA isolation, reverse-transcription using a random hexaprimer, and the MMLV Reverse Transcriptase Kit (ThermoFisher Scientific) we have described before^19. qPCR was performed using TaqMan Fast Advanced Master Mix with TaqMan probes (ThermoFisher Scientific). […] The delta-delta method was used for gene expression quantification normalized to at least two reference genes. Three technical replicates were used for each reaction considering the MIQE guidelines. Data are presented as fold induction to vehicle-treated cells/animals.

[3] = Metabolic stability in human liver S9 fraction
Description: (§1) Shimadzu HPLC system including vacuum degasser, gradient pumps, reverse phase HPLC column, column oven, and autosampler with an API 4000 QTRAP mass spectrometer (Applied Biosystems/MDS Sciex (AB Sciex) with Turbo V ion source and TurboIonspray interface were used. The reference compound midazolam, which is metabolized both by phase I and phase II enzymes, was used. The elimination constant (kel), half-life (t1/2), and intrinsic clearance (Clint) were determined[19] (Table S1).
Supplementary Figure 1. […] Test compounds (1 μM, final DMSO concentration 1%) were incubated at 37 °C with shaking at 100 rpm. Four time points over 120 minutes have been analyzed. The reactions were stopped by adding 420 μL of acetonitrile-water mixture (90:10). Supernatants were analyzed by the HPLC system coupled with a tandem mass spectrometer. The percentage (in % of initial concertation) of the test compounds remaining after incubation in plasma and their half-lives (t1/2) were calculated. […] The stability of the compound was tested in human liver S9 fraction. Cofactors were used such as UDPGA (for glucuronidation), PAPS (for sulfation), and reduced glutathione (for conjugation of GSH). Compounds were tested in triplicate with or without NADPH. Propantheline and midazolam were used as unstable control compounds in the experiments. Data represent the means±S.D. from at least three independent samples.

[4] = Metabolic stability in mouse liver S9 fraction; settings: male, CD-1, mouse, s9
Description: as §1

murine Car = settings: cited from earlier work
HepaRG KO CAR cells = test: RT-qPCR mRNA expression in HepaRG KO CAR cells; format: cell-based, human; settings: Phenobarbital 500 μM, CITCO 1 μM, MI 883 1 μM; ctrl = 1
Description: as §2, §3, §4

CAR-LBD = molecular target: T1, CAR-LBD (Homo sapiens, UniProt Q14994); test: MARCoNI CAR-LBD coregulator interaction array; format: biochemical; settings: 100 μM
T1 construct: HIS-tagged CAR-LBD (ThermoFisher Sciences, Cat. No PV4836); purchased ThermoFisher PV4836
Description: The reaction was performed in a fully automated microarray processing and fluorescent imaging platform (PamStation12) at 20 °C for 80 cycles (two cycles per minute). After removal of the unbound CAR-LBD receptor by washing each array with 25 µl Tris-buffered Saline (TBS) buffer, fluorescent images of the PamChip microarrays were obtained using the PamStation12, and then were analyzed for quantification of CAR binding using BioNavigator software (PamGene International B.V.). For data and statistical analysis, BioNavigator was used.
Modulation index (MI) is the log10-transformed relative binding value, which is calculated by the compound’s binding value, relative to the vehicle control (DMSO) binding value.

[5] = normal mice, ref 10 of the reply (Dempsey et al.)

T1 sequence (Q14994 109-348 isoform Q14994-2 limits assumed): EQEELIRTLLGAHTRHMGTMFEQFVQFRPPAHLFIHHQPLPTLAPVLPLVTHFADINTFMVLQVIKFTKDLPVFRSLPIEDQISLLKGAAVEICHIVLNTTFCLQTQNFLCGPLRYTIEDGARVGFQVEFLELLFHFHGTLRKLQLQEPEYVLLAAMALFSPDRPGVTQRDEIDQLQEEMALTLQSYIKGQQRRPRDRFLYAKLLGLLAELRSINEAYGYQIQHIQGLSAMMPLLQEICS

In the case of SPA70 [reference compound], the “pER6-luc luciferase gene reporter assay (Fig1 m), replicates” value (“pER6-luc luciferase gene reporter assay” below) ([1]; Rif 1μM + SPA70 10μM) is reported as 1.57 and 1.64 and 1.5, the “pER6-luc luciferase gene reporter assay” value ([1]; SR12813 1μM + SPA70 10μM) is reported as 1.2 and 2 and 3.55 and the “pER6-luc luciferase gene reporter assay” value ([1]; single agent 1μM, ctrl ~1) is reported as 1.15 and 1.67 and 1.39. For the same compound, the “pER6-luc luciferase gene reporter assay” value ([1]; single agent 10μM) was 1 and 1.1 and 1.26, the “RT-qPCR in LS174T (Fig 1 l, CYP3A4 mRNA), replicates” value (shortened to “RT-qPCR in LS174T”) ([2]; Rif 1μM + test compound 10μM) was 0.37 and 0.6 and 0.8 and the “RT-qPCR in LS174T” value ([2]; SR12813 1μM + test compound 10μM) was 0.46 and 0.35 and 0.34. The “RT-qPCR in LS174T” value ([2]; single agent 10μM) was 0.29 and 0.5 and 0.49, the “basal expression of SQLE mRNA in HepaRG cells” value (HepaRG cells) was “downregulated” and the “rifampicin induction of SQLE mRNA in HepaRG cells” value (HepaRG cells; MI-883 at 1 μM, SPA70) was “abrogated”. The “CYP2B6 expression relative to control (replicates)” value (HepaRG cells; SPA70 1 μM) was 0.7099 and 0.6385, the “CYP2B6 expression relative to control (replicates)” value (HepaRG cells; SPA70 1 μM + CITCO (1 μM)) was 0.8 and 0.8395 and 0.9953 and the “CYP2B6 expression relative to control (replicates)” value (HepaRG cells; SPA70 5 μM) was 0.4419 and 0.6247 and 0.5722. For the same compound, the “CYP2B6 expression relative to control (replicates)” value (HepaRG cells; SPA70 5 μM + Rif (5 μM)) was 0.8063 and 0.705 and 0.7533, the “CYP3A4 expression relative to control (replicates)” value (HepaRG cells; SPA70 5 μM + Rif (5 μM)) was 1.181 and 0.9078 and 1.057 and the “CYP2B6 expression relative to control (replicates)” value (HepaRG cells; SPA70 10 μM) was 0.4185 and 0.6476 and 0.5707 and 0.3103. The “CYP2B6 expression relative to control (replicates)” value (HepaRG cells; SPA70 10 μM + CITCO (1 μM)) was 0.9283 and 0.5126 and 0.8752, the “CYP2B6 expression relative to control (replicates)” value (HepaRG cells; SPA70 10 μM + Rif (5 μM)) was 0.4242 and 0.5514 and 0.5133 and the “CYP3A4 expression relative to control (replicates)” value (HepaRG cells; SPA70 10 μM + Rif (5 μM)) was 0.8451 and 0.9487 and 0.8513 and 0.8231. The “CYP2B6 expression relative to control (replicates)” value (HepaRG cells; SPA70 20 μM) was 0.8031 and 0.3464, the “CYP2B6 expression relative to control (replicates)” value (HepaRG cells; SPA70 20 μM + CITCO (1 μM)) was 1.219 and 0.6292 and 0.9541 and the “CYP2B6 expression relative to control (replicates)” value (HepaRG cells; SPA70 20 μM + Rif (5 μM)) was 0.5214 and 0.5645. The “CYP3A4 expression relative to control (replicates)” value (HepaRG cells; SPA70 20 μM + Rif (5 μM)) was 0.8451 and 0.7532 and the “rifampicin-induced and basal CYP3A4 and CYP2B6 mRNA expression in HepaRG cells” value (HepaRG cells; Supplementary Fig. 10) was “suppressed”.
In the case of `Cc1ncc2n1-c1ccc(Cl)cc1C(c1ccccc1F)=NC2` [Midazolam, midazolam], the half-life at 2 µM ([3]; human, s9) is reported as 6.3 ± 0.3 min, the microsomal CLint at 2 µM ([3]; human, s9) is reported as 55 ± 2.5 µL/min/mg and the “Stability in S9 fraction (human liver), % remaining” value ([3]; time 0 (min), 2 μM) is reported as 100. The “Stability in S9 fraction (human liver), % remaining” value ([3]; time 20) was 94, the “Stability in S9 fraction (human liver), % remaining” value ([3]; time 40) was 53 and the “Stability in S9 fraction (human liver), % remaining” value ([3]; time 60) was 18. For the same compound, the “Stability in S9 fraction (human liver), % remaining” value ([3]; time 120) was 1, the half-life [4] was 3.1 min and the microsomal CLint [4] was 113 µL/min/mg.
In the case of `CCOP(=O)(OCC)C(=Cc1cc(C(C)(C)C)c(O)c(C(C)(C)C)c1)P(=O)(OCC)OCC` [SR12813], the “pER6-luc luciferase gene reporter assay” value ([1]; single agent 1μM, ctrl ~1) is reported as 6.4 and 6.3 and 4.7, the “pER6-luc luciferase gene reporter assay” value ([1]; single agent 10μM) is reported as 11.93 and 6.55 and 11 and the “RT-qPCR in LS174T” value ([2]; single agent 1μM, ctrl = 1) is reported as 1.75 and 3.85 and 3.1.
For `Clc1cnc(Oc2ccc(Oc3ncc(Cl)cc3Cl)cc2)c(Cl)c1` [TCPOBOP], the “suppression of atherosclerotic lesions in the aortic valves” value (murine Car; Ldlr –/– mice) is given as 60%, the “decrease of cholesterol content in the liver” value (murine Car; after 2 months) is given as 25% and the “decrease of cholesterol content in the whole body” value (murine Car; after 2 months) is given as roughly 50%. The “increase of fecal excretion of 3H-labeled bile acids” value (murine Car; mice) was ~ 40%, the “colon bsh activity compared to control animals” value (murine Car; [5]) was 30% and the “increase of colon unconjugated and total BA pools (not significant)” value (murine Car; [5]) was “about 1.4 fold”.
In the case of `CCC1(c2ccccc2)C(=O)NC(=O)NC1=O` [Phenobarbital], the “CYP2B6 mRNA, RT-qPCR, HepaRG KO CAR (Fig. 1f), replicates” value (HepaRG KO CAR cells) is reported as 2.7 and 1.95 and 2.4.
For SPA-70, the “CYP3A4 expression relative to control (replicates)” value (HepaRG cells; SPA-70 1 μM) was 0.8854 and 0.7984, the “SQLE expression relative to control (mean)” value (HepaRG cells; SPA-70 1 μM + Rif (5 μM)) was 0.6659 and the “SQLE expression relative to control (mean)” value (HepaRG cells; SPA-70 1 μM, 48 h) was 0.6886. For the same compound, the “CYP3A4 expression relative to control (replicates)” value (HepaRG cells; SPA-70 5 μM) was 0.7429 and 0.6513 and 0.7215, the “SQLE expression relative to control (mean)” value (HepaRG cells; SPA-70 5 μM + Rif (5 μM)) was 0.7312 and the “SQLE expression relative to control (mean)” value (HepaRG cells; SPA-70 5 μM, 24 h) was 0.9488. For the same compound, the “SQLE expression relative to control (mean)” value (HepaRG cells; SPA-70 5 μM, 48 h) was 0.6267, the “CYP3A4 expression relative to control (replicates)” value (HepaRG cells; SPA-70 10 μM) was 0.443 and 0.6539 and 0.5479 and 0.7562 and the “SQLE expression relative to control (mean)” value (HepaRG cells; SPA-70 10 μM + Rif (5 μM)) was 0.7448. For the same compound, the “SQLE expression relative to control (mean)” value (HepaRG cells; SPA-70 10 μM, 24 h) was 0.7277, the “SQLE expression relative to control (mean)” value (HepaRG cells; SPA-70 10 μM, 48 h) was 0.6494 and the “CYP3A4 expression relative to control (replicates)” value (HepaRG cells; SPA-70 20 μM) was 0.5871 and 0.5215. For the same compound, the “SQLE expression relative to control (mean)” value (HepaRG cells; SPA-70 20 μM + Rif (5 μM)) was 0.8792 and the “SQLE expression relative to control (mean)” value (HepaRG cells; SPA-70 20 μM, 48 h) was 0.7487.
In the case of `Clc1ccccc1C(c1ccccc1)(c1ccccc1)n1ccnc1` [clotrimazole, reference compound], the CAR-coregulator interaction profile (CAR-LBD) is reported as “releasing most of the coactivator proteins”.
For `CO[C@H]1/C=C/O[C@@]2(C)Oc3c(C)c(O)c4c(O)c(c(/C=N/N5CCN(C)CC5)c(O)c4c3C2=O)NC(=O)/C(C)=C\C=C\[C@H](C)[C@H](O)[C@@H](C)[C@@H](O)[C@@H](C)[C@H](OC(C)=O)[C@@H]1C` [rifampicin, reference compound], the “PCSK9 mRNA in HepaRG cells” value (HepaRG cells; Supplementary Fig. 10b) was “Marginal effect” and the “SQLE mRNA in HepaRG cells” value (HepaRG cells; rifampicin (5 μM)) was “weakly but significantly upregulated”.
